Drawing on US12528796B2, “Modulators of RAS GTPase” (Tosk, Inc., priority 2019, dated 2026), this text covers IC50 for twelve molecules.

A value given as a limit tells only on which side of the number the result lay.

In the test the test system is SW620 cells (KRAS-G12V). In words: Cell proliferation / cytotoxicity assay (CellTiter-Glo 2.0). Format: cell-based. The conditions noted are these: Homo sapiens, SW-620, 72 h, SW620 cell line (KRAS-G12V), 72 hours incubation, luminescence (CellTiter-Glo 2.0); read-out: 5W620 IC50. As for the experimental part: Compounds are assayed for inhibition of cell proliferation and killing cancer cells. Cytotoxicity assays are conducted according to the following general procedure. SW620 cells (ATCC CCL-227) are maintained in DMEM Low Glucose (Corning 10-014-CV) media supplemented with 10% fetal bovine serum and 1% PenStrep and grown at 37° C. in 5% CO2. Cells are plated into 96 well flat bottom plates (2 million/plate, ˜20,000/well, 200 μL media/well). The cells are allowed to settle and adhere to the plate bottom overnight. Compounds are diluted in media from a 10 mM stock solution starting at 50 μM, using 2-fold dilutions, in a column in a 96-well plate. Media is removed from the plate containing cells and replaced with media containing diluted compounds. Plates are incubated 72 hours at 37° C. in 5% CO2. Plates were allowed to come to room temperature and 100 μL CellTiter-Glo 2.0 reagent (Promega, G924C) is added at room temperature. Plates are shaken for 2 minutes, then allowed to stand for 15 minutes. Luminescence is read with FLx800 (BioTek Instruments). Data is plotted with GraphPad Prizm 8.0.
Dose response curves for the cytotoxicity of exemplary compounds against SW620 (KRAS-G12V) and MIA PaCa-2 (KRAS-G12C) cell lines are shown in FIG. 1A-1J.
For `Cc1nc(NC2CCN(C(=O)c3cccc(Cl)c3)CC2)nc2ccc(-c3cccc4c3OCCO4)cc12` [Compound 15], the IC50 fell in the range of 5 to 10 µM. Next, `Cc1ncccc1C(=O)N1CCC(Nc2nc(C)c3cc(-c4cccc5c4OCCO5)ccc3n2)CC1` [Compound 13]: less than 5 µM; `Cc1nc(NC2CCN(Cc3ccc(Cl)cc3)CC2)nc2ccc(-c3cccc4c3NC(=O)CO4)cc12` [Compound 62]: less than 5 µM; `Cc1nc(NC2CCN(Cc3ccc(Cl)cc3)CC2)nc2ccc(-c3ccnc4[nH]ccc34)cc12` [Compound 42]: less than 5 µM. Next, `COc1cnccc1-c1ccc2nc(NC3CCN(Cc4ccc(Cl)cc4)CC3)nc(C)c2c1` [Compound 49]: less than 5 µM; `COc1ccccc1C(=O)N1CCC(Nc2nc(C)c3cc(-c4cccc5c4OCCO5)ccc3n2)CC1` [Compound 17]: 5 to 10 µM; `Cc1ncccc1-c1ccc2nc(NC3CCN(C(=O)c4ccc(Cl)cc4)CC3)nc(C)c2c1` [Compound 66]: 5 to 10 µM. Next, `COc1cc(-c2ccc3nc(NC4CCN(Cc5ccc(Cl)cc5)CC4)nc(C)c3c2)c(Cl)cn1` [Compound 51]: less than 5 µM; `Cc1nc(NC2CCN(Cc3ccc(Cl)cc3)CC2)nc2ccc(-c3cccc4c3CCNC4)cc12` [Compound 4, N-(1-(4-chlorobenzyl)piperidin-4-yl)-4-methyl-6-(1,2,3,4-tetrahydroisoquinolin-5-yl)quinazolin-2-amine]: 5 to 10 µM.

As to `Cc1nc(N[C@@H]2CC[C@H]3CC[C@@H](C2)N3C(=O)c2ccccc2Cl)nc2ccc(-c3cccc4c3CCCC4)cc12` [Compound 72], the IC50 is 5 to 10 µM. Next, `Cc1ccc2ccc(F)c(-c3ccc4nc(NC5CCN(C(=O)c6ccccc6Cl)CC5)nc(C)c4c3)c2n1` [Compound 61]: 5 to 10 µM; `Cc1nc(NC2CCN(C(=O)c3cccc(Cl)c3)[C@H](C)C2)nc2ccc(-c3cccc4c3OCCO4)cc12` (stereo partly drawn) [Compound 25]: 5 to 10 µM.
